Experimental data: PMC7395068, “The evolution of strategies to minimise the risk of human drug-induced liver injury (DILI) in drug discovery and development” (Archives of Toxicology, 2020)
Where two headings read alike, the source gives them in different places.

Legend:
[1] = Plasma free fraction (fu) and unbound Cmax (Cmax,u); format: in vitro ADME, human; details: unbound plasma Cmax
Description: The prediction of DILI severity was evaluated further using the 3D combined HCI assays using plasma-free fraction. The majority of fu values were obtained from literature, when unavailable in-house prediction was utilised. Unbound plasma Cmax concentrations (Cmax,u) were derived by multiplying total plasma Cmax with the corresponding free fraction (fu) for each compound.

hLiMTs [2] = system: hLiMTs
HepaRG spheroids [3] = system: HepaRG spheroids
[4] = cited from earlier work
HepG2 cells [5] = details: cited from earlier work
HepG2 cells [6] = details: cited from earlier work; remark: listed apart in the source
human hepatocytes = details: cited from earlier work
PHH = details: cited from earlier work
hLiMTs [7] = details: cited from earlier work
PHH spheroids = details: cited from earlier work
[8] = read-out: Human plasma Cmax; total plasma Cmax.tot, median of 9 literature references; cited from earlier work
[9] = plasma free fraction; cited from earlier work
[10] = cited from earlier work; remark: listed apart in the source
[11] = system: THLE-Null and THLE-3A4 cells; details: In vitro Assay; ref Gustafsson 2014; cited from earlier work
rBsep = details: In vitro Assay; ref Dawson 2012; cited from earlier work
hLiMTs [12] = test: Combined HCI (HCS) and cellular ATP 3D assay in hLiMTs; details: for hLiMTs <25x Avg Cmax ATP / hLiMTs <100x Avg Cmaxu ATP: ATP endpoint; for hLiMTs <25x Avg Cmax ATP / hLiMTs <25x Avg Cmax HCS / hLiMTs <25x Avg Cmax All: cut-off <25x Avg Cmax; for hLiMTs <25x Avg Cmax HCS / hLiMTs <100x Avg Cmaxu HCS: HCS endpoints; for hLiMTs <25x Avg Cmax All: all endpoints (ATP and HCS); for hLiMTs Cmax max All / hLiMTs Cmax min All / hLiMTs <10 uM All / hLiMTs <100x Avg Cmaxu All: all endpoints; for hLiMTs Cmax max All: Cmax max used; for hLiMTs Cmax min All: Cmax min used; for hLiMTs <10 uM All: cut-off <10 uM; for hLiMTs <100x Avg Cmaxu ATP / hLiMTs <100x Avg Cmaxu HCS / hLiMTs <100x Avg Cmaxu All: cut-off <100x Avg Cmaxu
HepaRG spheroids [13] = test: Combined HCI (HCS) and cellular ATP 3D assay in HepaRG spheroids; details: HepaRG; for HepaRG <25x Avg Cmax ATP / HepaRG <100x Avg Cmaxu ATP: ATP endpoint; for HepaRG <25x Avg Cmax ATP / HepaRG <25x Avg Cmax HCS / HepaRG <25x Avg Cmax All: cut-off <25x Avg Cmax; for HepaRG <25x Avg Cmax HCS / HepaRG <100x Avg Cmaxu HCS: HCS endpoints; for HepaRG <25x Avg Cmax All: all endpoints (ATP and HCS); for HepaRG Cmax max All / HepaRG Cmax min All / HepaRG <10 uM All / HepaRG <100x Avg Cmaxu All: all endpoints; for HepaRG Cmax max All: Cmax max used; for HepaRG Cmax min All: Cmax min used; for HepaRG <10 uM All: cut-off <10 uM; for HepaRG <100x Avg Cmaxu ATP / HepaRG <100x Avg Cmaxu HCS / HepaRG <100x Avg Cmaxu All: cut-off <100x Avg Cmaxu; for minimal effective concentration: Homo sapiens
[14] = system: HepG2 C3A spheroid, BSEP, Glu/Gal in HepG2 cells, bioactivation; details: cited from earlier work
[15] = system: THLE or HepG2 cells, isolated mitochondria, BSEP; details: cited from earlier work
[16] = In vitro Assay, ref Persson 2013
[17] = 2D PHH, ATP, IC50 threshold 100 µM, ref Proctor et al. 2017
[18] = In vitro Assay, ref Proctor 2017
[19] = hLiMTs, ATP, IC50 threshold 100 µM, ref Proctor et al. 2017
[20] = Chen et al. 2016 or literature alignment, ref Chen et al. 2016

SMILES: CCOC(=O)c1ncn2c1CN(C)C(=O)c1cc(F)ccc1-2 [flumazenil, reference compound]
- Human plasma Cmax,u [1]: 650 nM
- DILI prediction hLiMTs (HCS-MEC) (hLiMTs [2]): -VE
- DILI prediction HepaRG spheroids (HCS-MEC) (HepaRG spheroids [3]): -VE
- DILI severity category (Chen et al. [2016]) ([4]; LTKB DILIrank category, ref Chen et al. 2016): No
- DILI severity category (Chen 2016) ([4]; human DILI classification, LTKB DILIrank, ref Chen et al. 2016): No
- DILI severity category ([4]; human DILI severity, ref Chen et al.): No
- DILI +VE (5-8), DILI -VE (-4) ([4]; ref Chen 2016): -VE
- DILI severity category ([4]; ref Chen 2016): vNo-DILI-Concern
- Structural based (HCI) (HepG2 cells [5]; In vitro Assay, ref O'Brien 2006): -VE
- DILI in vitro assay prediction, O'Brien (2006) (HepG2 cells [5]; Structural based (HCI), HepG2, ref O'Brien et al. 2006): -VE
- Cluser analysis (HepG2 cells [6]; [16]): -VE
- Structural based (HCI) (HepG2 cells [6]; [16]): -VE
- DILI in vitro assay prediction, Persson (2013) (HepG2 cells [6]; Structural based (HCI), HepG2, ref Persson et al. 2013): -VE
- Structural based (HCI) (human hepatocytes; In vitro Assay, ref Xu 2008): -VE
- DILI in vitro assay prediction, Xu (2008) (human hepatocytes; Structural based (HCI), human hepatocytes, ref Xu et al. 2008): -VE
- PHH/100uM, Proctor (2017) (PHH; [17]): -VE
- PHH ATP <100uM (PHH; [18]): -VE
- hLiMTs ATP <100uM (hLiMTs [7]; [18]): -VE
- hLiMTs/100uM, Proctor (2017) (hLiMTs [7]; [19]): -VE
- hLiMTs ATP <20 x Cmax (PHH spheroids; In vitro Assay, ref Vorrink 2018): -VE
- DILI in vitro assay prediction, Vorrink (2018) (PHH spheroids; PHH spheroids, ATP, 14 days, IC20 < 20 × Cmax.tot, ref Vorrink et al. 2018): -VE
- Cmax [8]: 1120 nM
- fu [9]: 0.580
- Assigned DILI category [10, 20]: 1
- In vivo DILI ([10]; ref Dawson 2012): -VE
- In vivo DILI ([10]; ref Gustafsson 2014): -VE
- In vivo DILI ([10]; ref O'Brien 2006): -VE
- In vivo DILI ([10]; ref Persson 2013): -VE
- In vivo DILI ([10]; ref Proctor 2017): -VE
- In vivo DILI ([10]; ref Vorrink 2018): -VE
- In vivo DILI ([10]; ref Williams 2019): -VE
- In vivo DILI ([10]; ref Xu 2008): -VE
- THLE-Null [11]: -VE
- Inhibition of rBsep cutoff<1& cmax u>.2 (rBsep): -VE
- Inhibition of rBsep cutoff<3 (rBsep): -VE
- hLiMTs <25x Avg Cmax ATP (hLiMTs [12]): -ve
- hLiMTs <25x Avg Cmax HCS (hLiMTs [12]): -ve
- hLiMTs <25x Avg Cmax All (hLiMTs [12]): -ve
- hLiMTs Cmax max All (hLiMTs [12]): -ve
- hLiMTs Cmax min All (hLiMTs [12]): -ve
- hLiMTs <10 uM All (hLiMTs [12]): -ve
- HepaRG <25x Avg Cmax ATP (HepaRG spheroids [13]): -ve
- HepaRG <25x Avg Cmax HCS (HepaRG spheroids [13]): -ve
- HepaRG <25x Avg Cmax All (HepaRG spheroids [13]): -ve
- HepaRG Cmax max All (HepaRG spheroids [13]): -ve
- HepaRG Cmax min All (HepaRG spheroids [13]): -ve
- HepaRG <10 uM All (HepaRG spheroids [13]): -ve

SMILES: CN(C)C(=O)Oc1cccc([N+](C)(C)C)c1 [neostigmine]
- Human plasma Cmax,u [1]: 36 nM
- DILI prediction hLiMTs (HCS-MEC) (hLiMTs [2]): -VE
- DILI prediction HepaRG spheroids (HCS-MEC) (HepaRG spheroids [3]): -VE
- PHH/100uM, Proctor (2017) (PHH; [17]): -VE
- PHH ATP <100uM (PHH; [18]): -VE
- PHH/100xCmax, Proctor (2017) (PHH): -VE
- hLiMTs ATP <100uM (hLiMTs [7]; [18]): -VE
- hLiMTs/100xCmax, Proctor (2017) (hLiMTs [7]): -VE
- hLiMTs/100uM, Proctor (2017) (hLiMTs [7]; [19]): -VE
- Bayesian Machine Learning DILI prediction, Williams (2019) ([14]; Bayesian modeling, ref Williams et al. 2019): -VE
- Bayesian Machine Learning ([14]; ref Williams 2019): -VE
- Cmax [8]: 45 nM
- fu [9]: 0.800
- Assigned DILI category [10, 20]: 1
- In vivo DILI ([10]; […]): -VE
- In vivo DILI ([10]; ref Proctor 2017): -VE
- In vivo DILI ([10]; ref Williams 2019): -VE
- hLiMTs <25x Avg Cmax ATP (hLiMTs [12]): -ve
- hLiMTs <100x Avg Cmaxu ATP (hLiMTs [12]): -ve
- hLiMTs <25x Avg Cmax HCS (hLiMTs [12]): -ve
- hLiMTs <100x Avg Cmaxu HCS (hLiMTs [12]): -ve
- hLiMTs <25x Avg Cmax All (hLiMTs [12]): -ve
- hLiMTs Cmax max All (hLiMTs [12]): -ve
- hLiMTs Cmax min All (hLiMTs [12]): -ve
- hLiMTs <10 uM All (hLiMTs [12]): -ve
- hLiMTs <100x Avg Cmaxu All (hLiMTs [12]): -ve
- HepaRG <25x Avg Cmax ATP (HepaRG spheroids [13]): -ve
- HepaRG <100x Avg Cmaxu ATP (HepaRG spheroids [13]): -ve
- HepaRG <25x Avg Cmax HCS (HepaRG spheroids [13]): -ve
- HepaRG <100x Avg Cmaxu HCS (HepaRG spheroids [13]): -ve
- HepaRG <25x Avg Cmax All (HepaRG spheroids [13]): -ve
- HepaRG Cmax max All (HepaRG spheroids [13]): -ve
- HepaRG Cmax min All (HepaRG spheroids [13]): -ve
- HepaRG <10 uM All (HepaRG spheroids [13]): -ve
- HepaRG <100x Avg Cmaxu All (HepaRG spheroids [13]): -ve

SMILES: CC(COc1ccccc1)N(CCCl)Cc1ccccc1 (stereo not drawn) [phenoxybenzamine]
- Human plasma Cmax,u [1]: 2 nM
- DILI prediction hLiMTs (HCS-MEC) (hLiMTs [2]): -VE
- DILI prediction HepaRG spheroids (HCS-MEC) (HepaRG spheroids [3]): -VE
- DILI +VE (5-8), DILI -VE (-4) ([4]; in vivo): -VE
- DILI severity category (Chen et al. [2016]) ([4]; in vivo): No
- DILI in vitro assay prediction, Xu (2008) (human hepatocytes): -VE
- Structural based (HCI) (human hepatocytes): -VE
- Partition Hybrid HRM Score [15]: +VE
- Partition Hybrid HRM Score ≥4, Aleo (2019) [15]: +VE (key: +VE: Partition Hybrid HRM Score ≥4)
- Partition Hybrid HRM Score ≥8, Aleo (2019) [15]: -VE
- Ro2 Hybrid HRM Score [15]: +VE
- Rule of Two hybrid HRM Score ≥3, Aleo (2019) [15]: +VE (key: +VE: Rule of Two hybrid HRM Score ≥3)
- Rule of Two hybrid HRM Score ≥8, Aleo (2019) [15]: -VE
- PHH ATP <100uM (PHH): -VE
- PHH/100uM, Proctor (2017) (PHH): -VE
- PHH/100xCmax, Proctor (2017) (PHH): -VE
- hLiMTs ATP <100uM (hLiMTs [7]): -VE
- hLiMTs/100uM, Proctor (2017) (hLiMTs [7]): -VE
- hLiMTs/100xCmax, Proctor (2017) (hLiMTs [7]): -VE
- DILI in vitro assay prediction, Vorrink (2018) (PHH spheroids): -VE
- hLiMTs ATP <20 x Cmax (PHH spheroids): -VE
- Bayesian Machine Learning [14]: -VE
- Bayesian Machine Learning DILI prediction, Williams (2019) [14]: -VE
- Cmax [8]: 197 nM
- fu [9]: 0.009
- Assigned DILI category ([10]; in vivo): 1
- In vivo DILI ([10]; in vivo): -VE
- AC50 (hLiMTs [12]; Homo sapiens, read-out: ATP endpoint AC50): 26.9 µM
- minimal effective concentration (hLiMTs [12]; Homo sapiens, read-out: ATP endpoint MEC): 10.7 µM
- minimal effective concentration (hLiMTs [12]; Homo sapiens, read-out: HCS endpoint MEC): 15.6 µM
- hLiMTs <25x Avg Cmax ATP (hLiMTs [12]): -ve
- hLiMTs <100x Avg Cmaxu ATP (hLiMTs [12]): -ve
- hLiMTs <25x Avg Cmax HCS (hLiMTs [12]): -ve
- hLiMTs <100x Avg Cmaxu HCS (hLiMTs [12]): -ve
- hLiMTs <25x Avg Cmax All (hLiMTs [12]): -ve
- hLiMTs Cmax max All (hLiMTs [12]): -ve
- hLiMTs Cmax min All (hLiMTs [12]): -ve
- hLiMTs <10 uM All (hLiMTs [12]): -ve
- hLiMTs <100x Avg Cmaxu All (hLiMTs [12]): -ve
- HepaRG <25x Avg Cmax ATP (HepaRG spheroids [13]): -ve
- HepaRG <100x Avg Cmaxu ATP (HepaRG spheroids [13]): -ve
- HepaRG <25x Avg Cmax HCS (HepaRG spheroids [13]): -ve
- HepaRG <100x Avg Cmaxu HCS (HepaRG spheroids [13]): -ve
- HepaRG <25x Avg Cmax All (HepaRG spheroids [13]): -ve
- HepaRG Cmax max All (HepaRG spheroids [13]): -ve
- HepaRG Cmax min All (HepaRG spheroids [13]): -ve
- HepaRG <10 uM All (HepaRG spheroids [13]): -ve
- HepaRG <100x Avg Cmaxu All (HepaRG spheroids [13]): -ve
- minimal effective concentration (HepaRG spheroids [13]; read-out: ATP endpoint MEC): 25.3 µM
- minimal effective concentration (HepaRG spheroids [13]; read-out: HCS endpoint MEC): 53.8 µM
